Experimental data as given in US9550811B2, “Peptide scaffold design” (BIONOR IMMUNO AS, priority 2010, dated 2017).
Where “and” joins values, the source holds several entries; their conditions need not be identical. Equal entries are not always repeated.

Experiments:
DC-cells = assay: Cell penetration assay: staining for biotinylated peptides, dendritic cells gated as CD11c+; format: cell-based, human; details: low concentration of peptides (208 uM)
Summary of the method: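 Human PBMCs from one donor incubated 2 h at 37 °C with N- or C-terminally biotinylated peptides (5, 2.5, 1.25 mM; concentrations as added), then trypsinized, fixed/permeabilized and stained with streptavidin-APC and anti-CD11c. Flow cytometry GeoMean of peptide fluorescence in total cells and CD11c+ dendritic cells.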

[1] = tested on: PBMC samples from HCV patients; assay: Human IFN-gamma cytotoxic T-cell (CTL) response by ELISPOT assay; format: cell-based
Procedure: Human IFN-Gamma Cytotoxic T-Cell (CTL) Response by ELISPOT Assay
Briefly, at day 1, PBMC samples from HCV patients were incubated in flasks (430 000 PBMCs/cm2) for 2 h at 37° C., 5% CO2 in covering amount of culture media (RPMI 1640 Fisher Scientific; Cat No. PAAE15-039 supplemented with L-Glutamine, (MedProbe Cat. No. 13E17-605E, 10% Foetal Bovine serum (FBS), Fisher Scientific Cat. No. A15-101) and Penicillin/Streptomycin, (Fisher Acientific Cat. No. P11-010) in order to allow adherence of monocytes. Non-adherent cells were isolated, washed, and frozen in 10% V/V DMSO in FBS until further usage. Adherent cells were carefully washed with culture media, followed by incubation at 37° C. until day 3 in culture media containing 2 μg/ml final concentration of hrGM-CSF (Xiamen amoytop biotech co, cat no: 3004.9090.90) & 1 μg/ml hrIL-4 (Invitrogen, Cat no: PHC0043), and this procedure was then repeated at day 6. At day 7, cultured dendritic cells (5 000-10 000 per well) were added to ELISPOT (Millipore multiscreen HTS) plates coated with 0.5 μg/well anti-human γ Interferon together with thawed autologous non-adherent cells (200 000 per well), antigen samples (1-8 ug/ml final concentration for peptide antigens; 5 ug/ml final concentration for Concanavalin A (Sigma, Cat no: C7275) or PHA (Sigma, Cat no: L2769)) & anti-Anergy antibodies (0.03-0.05 ug/ml final concentration for both anti-PD-1 (eBioscience, cat no: 16-9989-82) & anti-PD-L1 (eBioscience, cat no: 16-5983-82)). Plates were incubated overnight and spots were developed according to manufacturer. Spots were read on ELISPOT reader (CTL-ImmunoSpot® S5 UV Analyzer).

Row | Sequence | Results on DC-cells (geomean peptide-fluorescence) (DC-cells; BC 16) | Results on DC-cells (geomean peptide-fluorescence) (DC-cells; BC43) | IFN-g ELISPOT (T-cell spots) ([1]; Patient A (HCV patient), listed as 310-51b) | IFN-g ELISPOT (T-cell spots) ([1]; Patient B (HCV patient), listed as 310-51b) | IFN-g ELISPOT (T-cell spots) ([1]; Patient C (HCV patient), listed as 310-51b) | IFN-g ELISPOT (T-cell spots) ([1]; Patient D (HCV patient), listed as 310-51b) | IFN-g ELISPOT (T-cell spots) ([1]; Patient A (HCV patient), listed as 310-42) | IFN-g ELISPOT (T-cell spots) ([1]; Patient D (HCV patient), listed as 310-42) | IFN-g ELISPOT (T-cell spots) ([1]; Patient A (HCV patient), listed as 310-42b) | IFN-g ELISPOT (T-cell spots) ([1]; Patient B (HCV patient), listed as 310-42b) | IFN-g ELISPOT (T-cell spots) ([1]; Patient D (HCV patient), listed as 310-42b)
1 | RRGYIPLVGAPLGBRVARALAHGVRV [51b] | 7000 | 6082 | 45 and 40 | 50 and 85 | 45 and 75 | 9 and 13 | – | – | – | – | –
2 | RRIRNLGRVIETLTGBRLZGYIPLIGA [compound 42] | 74920 | 65811 | – | – | – | – | 75 and 80 | 13 and 11 | – | – | –
3 | RRSRNLGKVIDTLTCBRLMGYIPLVGA [42b] | 61968 | 19181 | – | – | – | – | – | – | 90 and 115 | 60 and 80 | 13 and 11
